According to article PMC6010089, “Isothiocyanates: cholinesterase inhibiting, antioxidant, and anti-inflammatory activity” (Journal of Enzyme Inhibition and Medicinal Chemistry, 2018):
Read-outs that look alike come from different tables or passages of the source.

Assays:
[1] = target: T1, acetylcholinesterase (AChE) (Electrophorus electricus, UniProt O42275); experiment: modified Ellman assay; assay type: biochemical; design: electric eel, type V-S
[2] = target: T1, acetylcholinesterase (AChE); experiment: biochemical; conditions: read-out: AChE / Inhibition (%)^a
[3] = target: T2, COX-2 (Homo sapiens, UniProt P35354); experiment: biochemical; design: COX-2 inhibitor screening kit, 10 min preincubation, arachidonic acid 2 min, PGF2alpha ELISA at 412 nm; conditions: read-out: COX-2 / Inhibition (%)^b
T2 construct: gene PTGS2
T2 sequence (P35354 18-604): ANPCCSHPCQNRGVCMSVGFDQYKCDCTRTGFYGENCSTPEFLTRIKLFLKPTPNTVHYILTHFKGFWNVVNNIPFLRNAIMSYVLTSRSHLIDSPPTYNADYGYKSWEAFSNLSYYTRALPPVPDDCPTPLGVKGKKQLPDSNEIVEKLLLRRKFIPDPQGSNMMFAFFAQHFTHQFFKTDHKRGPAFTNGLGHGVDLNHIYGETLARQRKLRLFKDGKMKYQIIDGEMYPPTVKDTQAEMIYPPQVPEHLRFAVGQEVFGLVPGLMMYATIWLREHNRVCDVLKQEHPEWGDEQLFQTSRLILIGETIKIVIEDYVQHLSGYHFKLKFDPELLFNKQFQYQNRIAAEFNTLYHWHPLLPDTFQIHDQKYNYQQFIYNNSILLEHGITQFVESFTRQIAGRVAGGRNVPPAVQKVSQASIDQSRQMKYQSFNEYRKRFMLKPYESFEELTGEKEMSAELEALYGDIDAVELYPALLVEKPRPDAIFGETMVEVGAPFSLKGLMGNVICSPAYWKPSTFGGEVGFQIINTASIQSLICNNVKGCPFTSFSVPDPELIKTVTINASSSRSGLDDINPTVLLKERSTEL
Protocol: To analyse the inhibition of the COX-2 enzyme activity mediated by the selected ITCs, the COX-2 (human) inhibitor screening assay kit from Cayman was used. In summary, the COX-2 enzyme was incubated with the samples (having final concentration in the assay of 50 μM, in 96% ethanol) for 10 min at 37 °C and subsequently the reaction was initiated by adding arachidonic acid and incubating the mixture for 2 min at 37 °C. The background tubes correspond to inactivated COX-2 enzyme obtained after keeping the tubes containing enzymes in boiling water for 3 min along with sample solvent. Enzyme catalysis was blocked by adding saturated stannous chloride solution. Prostaglandin (PGF2α) release was quantified using ELISA at 412 nm. Indomethacin solution (having final concentration in the assay of 10 μM, in 96% ethanol) was used as a positive control.

[4] = target: T3, butyrylcholinesterase (BChE) (Equus caballus, UniProt P81908); experiment: modified Ellman assay; assay type: biochemical; design: from equine serum
T3 sequence (P81908 whole entry): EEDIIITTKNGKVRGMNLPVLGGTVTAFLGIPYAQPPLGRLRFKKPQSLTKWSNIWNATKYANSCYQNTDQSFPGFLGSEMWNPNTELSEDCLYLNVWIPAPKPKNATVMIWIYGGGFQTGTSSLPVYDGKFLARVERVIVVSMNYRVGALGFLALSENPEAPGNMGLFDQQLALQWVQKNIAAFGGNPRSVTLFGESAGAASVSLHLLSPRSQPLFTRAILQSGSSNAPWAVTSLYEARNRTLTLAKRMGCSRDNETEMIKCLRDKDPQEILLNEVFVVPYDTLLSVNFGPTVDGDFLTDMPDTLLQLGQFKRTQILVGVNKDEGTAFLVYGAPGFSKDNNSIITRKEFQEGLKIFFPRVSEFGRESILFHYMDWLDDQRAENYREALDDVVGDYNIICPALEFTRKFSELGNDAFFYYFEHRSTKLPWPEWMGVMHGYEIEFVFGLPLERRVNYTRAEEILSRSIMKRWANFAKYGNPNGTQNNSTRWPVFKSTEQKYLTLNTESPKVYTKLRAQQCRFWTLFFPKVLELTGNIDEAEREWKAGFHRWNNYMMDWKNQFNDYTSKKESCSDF

[5] = target: T3, butyrylcholinesterase (BChE); experiment: biochemical; conditions: read-out: BChE / Inhibition (%)^a
[6] = target: T2, COX-2; experiment: Cayman human COX-2 inhibitor screening kit, PGF2alpha ELISA; assay type: biochemical; conditions: read-out: COX-2 / Inhibition (%)^b

T1 sequence (O42275 24-633): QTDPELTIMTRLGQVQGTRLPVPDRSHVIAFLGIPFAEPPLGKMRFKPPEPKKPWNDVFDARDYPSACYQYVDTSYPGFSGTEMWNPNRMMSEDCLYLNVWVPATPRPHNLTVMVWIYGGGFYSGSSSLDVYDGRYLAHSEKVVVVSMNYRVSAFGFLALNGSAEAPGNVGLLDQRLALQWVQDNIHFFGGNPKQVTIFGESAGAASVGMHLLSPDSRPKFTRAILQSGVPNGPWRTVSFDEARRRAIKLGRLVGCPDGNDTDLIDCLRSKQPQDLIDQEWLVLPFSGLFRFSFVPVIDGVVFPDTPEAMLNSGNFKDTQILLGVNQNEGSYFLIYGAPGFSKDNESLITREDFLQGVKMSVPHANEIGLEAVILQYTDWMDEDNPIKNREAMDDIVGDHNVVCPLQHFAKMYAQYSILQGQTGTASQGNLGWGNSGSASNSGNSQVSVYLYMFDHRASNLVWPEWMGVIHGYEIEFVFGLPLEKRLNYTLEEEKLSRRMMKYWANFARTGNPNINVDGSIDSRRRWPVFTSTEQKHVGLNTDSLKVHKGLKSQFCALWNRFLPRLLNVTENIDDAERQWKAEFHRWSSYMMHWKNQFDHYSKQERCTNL

| Structure (SMILES) | IC50 [1] [µM] | inhibition at 1140 µM [2] [%] | inhibition at 50 µM [3] [%] | inhibition at 1140 µM [4] [%] | IC50 ([1]; read-out: AChE / IC50) [µM] | inhibition at 1140 µM [5] [%] | inhibition at 50 µM [6] [%] |
| --- | --- | --- | --- | --- | --- | --- | --- |
| Cc1ccc(N=C=S)cc1 [compound 5, 4-Methylphenyl ITC] | 930 | 58.4 ± 1.1 | 13.6 ± 0.8 | 40.7 ± 0.7 | – | – | – |
| COc1ccccc1N=C=S [compound 7, 2-Methoxyphenyl ITC] | – | 57 ± 1.5 | – | – | 570 | 19.5 ± 0.1 | 99 ± 0.7 |
| CSCCCN=C=S [compound 11, 3-(Methylsulfanyl)propyl ITC] | – | 4.4 ± 0.7 | – | – | – | 15.4 ± 0.3 | 48 ± 0.3 |
| S=C=Nc1ccccc1 [compound 1, phenyl isothiocyanate] | – | – | – | – | – | – | 98.9 ± 0.3 |
| COc1cccc(N=C=S)c1 [compound 8, 3-Methoxyphenyl ITC] | – | 61.4 ± 1.6 | – | – | 1000 | – | – |
